Assay [1] addresses T1, AuroraA-TPX2 (Homo sapiens, UniProt O14965).
T1 construct: 20 μL of AuroraA-TPX2 KD GST; GST
T1 sequence (O14965 133-383 limits assumed): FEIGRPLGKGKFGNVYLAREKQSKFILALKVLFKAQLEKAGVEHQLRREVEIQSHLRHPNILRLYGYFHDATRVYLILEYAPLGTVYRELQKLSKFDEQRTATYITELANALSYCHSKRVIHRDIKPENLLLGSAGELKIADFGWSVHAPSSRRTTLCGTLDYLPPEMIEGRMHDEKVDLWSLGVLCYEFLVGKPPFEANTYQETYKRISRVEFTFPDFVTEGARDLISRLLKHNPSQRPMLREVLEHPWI
T1 sequence (Q9ULW0 1-43 partner limits assumed): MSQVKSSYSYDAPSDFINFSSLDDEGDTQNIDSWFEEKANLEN
Briefly: AuroraA-TPX2 Homogeneous Time Resolved Fluorescent (HTRF) kinase assay. The class given is biochemical. As to the method: AuroraA-TPX2-Homogeneous Time Resolved Fluorescent (HTRF) Kinase Assay
The Aurora-A HTRF assay begins with Aurora-A in the presence of ATP phosphorylating the biotinylated peptide PLK. The reaction incubates for about 120 min. Detection reagents are added to quench the reaction. These agents stop the reaction by diluting out the enzyme and chelating the metals due to the presence of EDTA. After addition, the assay is incubated overnight to allow the detection reagents to equilibrate.
The final concentration of PLK is about 1 μM. […] Buffer conditions are as follows: 60 mM HEPES pH 7.5, 25 mM NaCl, 10 mM MgCl, 2 mM DTT, 0.05% BSA.
The assay is quenched and stopped with 160 μL of detection reagent. Detection reagents are as follows: Buffer made of 50 mM Tris, pH 7.5, 100 mM NaCl, 3 mM EDTA, 0.05% BSA, 0.1% Tween20. Added to this buffer prior to reading is Steptavidin allophycocyanin (SA-APC) at a final conc in the assay of 0.0005 mg/mL, and europilated anti-phosphoPLK Ab (Eu-anti-PLK) at a final conc of 0.02 nM.
The assay plate is read in either a Discovery or a RubyStar. The eu-anti-PLK is excited at 320 nm and emits at 615 nm to excite the SA-APC which in turn emits at 655 nm.
On the technique in general: TR-FRET usually uses a lanthanide donor and a delayed reading to cut background.

Assay [2] addresses T2, AuroraB (Homo sapiens, UniProt Q96GD4).
T2 construct: 20 μL of AuroraB FL His; His
In words: AuroraB Homogeneous Time Resolved Fluorescent (HTRF) kinase assay. The class given is biochemical. As for the experimental part:
AuroraB-Homogeneous Time Resolved Fluorescent (HTRF) Kinase Assay:
The AuroraB HTRF assay begins with AuroraB in the presence of ATP phosphorylating the biotinylated peptide Histone H3. The reaction incubates for about 90 min. the reaction is quentched by addition of detection reagents, which stop the reaction by diluting out the enzyme and chelating the metals due to the presence of EDTA. After addition, the assay is incubated for about 60 min to allow detection reagents to equilibrate.
The AuroraB HTRF assay comprises 1 μL of compound in 100% DMSO, 20 μL of ATP and biotinylated Histone H3, and 20 μL of AuroraB FL His for a final volume of 41 μL. The final concentration of Histone H3 is 0.1 μM. The final concentration of ATP is 23 μM (Km(app)=23 μM+/−2.6) and the final concentration of AuroraB is 400 pM. Buffer conditions are as follows: 50 mM HEPES pH 7.5, 5 mM NaCl, 0.5 mM MgCl, 0.5 mM MnCl, 2 mM DTT, 0.05% BSA.
The assay is quenched and stopped with 160 μl, of detection reagent. Detection reagents are as follows: Buffer made of 50 mM Tris, pH 7.5, 100 mM NaCl, 3 mM EDTA, 0.05% BSA, 0.1% Tween20. Added to this buffer prior to reading is Steptavidin allophycocyanin (SA-APC) at a final conc in the assay of 0.001 mg/mL, and europilated anti-phosphoHistoneH3 Ab (Eu-anti-His H3) at a final conc of 0.064 nM.
The assay plate is read in either a Discovery or a RubyStar. The eu-anti-HisH3 is excited at 320 nm and emits at 615 nm to excite the SA-APC which in turn emits at 655 nm. The ratio of SA-APC at 655 nm (excited due to close proximity to the Eu-anti-H HisH3 because of phosphorylation of the peptide) to free Eu-anti-HisH3 at 615 nm will give substrate phosphorylation.

The mark [3] stands for this setting: class symbols, read-out: AurA/TPX2_IC50_IP (Avg).
[4] abbreviates: class symbols, read-out: AurB_IC50_IP (Avg).
Where [5] appears, read: numeric values, unit inferred, read-out: AurA/TPX2_IC50_IP (Avg).
[6] abbreviates: numeric values, unit inferred, read-out: AurB_IC50_IP (Avg).
Where [7] appears, read: ATP about 1 μM, biotinylated peptide PLK, read-out: average activity in the Aurora kinase A HTRF assay.
The mark [8] stands for this setting: ATP 23 μM, biotinylated peptide Histone H3, read-out: average activity in the Aurora kinase B HTRF assay.

Structures are written as SMILES. Read-outs that look alike come from different tables or passages of the source.

T2 sequence (Q96GD4 whole entry): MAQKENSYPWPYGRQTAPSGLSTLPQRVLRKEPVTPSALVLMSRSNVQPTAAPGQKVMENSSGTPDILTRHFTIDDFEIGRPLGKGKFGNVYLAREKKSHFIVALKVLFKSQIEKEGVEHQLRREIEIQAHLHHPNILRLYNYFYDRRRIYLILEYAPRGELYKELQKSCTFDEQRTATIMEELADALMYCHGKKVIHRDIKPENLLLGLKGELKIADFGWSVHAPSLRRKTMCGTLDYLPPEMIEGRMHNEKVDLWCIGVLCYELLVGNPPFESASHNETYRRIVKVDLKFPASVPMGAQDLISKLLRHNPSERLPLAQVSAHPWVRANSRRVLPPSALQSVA

Take `COc1cccc(-c2nnc(Nc3ccc(Oc4ncccc4-c4ccnc(N)c4)cc3)c3ccccc23)c1` [compound 441]: the IC50 in assay [1] (setting [3]) and in assay [2] (setting [4]) was 100 to 500 nM throughout.

Take `COc1cccc(-c2nnc(Nc3ccc(Oc4ncccc4-c4ccnc(N)n4)cc3)c3ccccc23)c1` [compound 438]: the IC50 in assay [1] (setting [3]) and in assay [2] (setting [4]) was not above 100 nM in each case.

With `CCc1cc(-c2ccccc2)nnc1Nc1ccc(Oc2ncccc2-c2ccnc(N)n2)cc1` [compound 435], the IC50 in assay [1] (setting [3]) and in assay [2] (setting [4]) was not above 100 nM throughout.

`Cc1cc(-c2ccccc2)nnc1Nc1ccc(Oc2ncccc2-c2ccnc(NCCCC(=O)O)n2)cc1` [compound 430]: the IC50 in assay [1] (setting [3]) and in assay [2] (setting [4]) was not above 100 nM each time.

For `CCc1cc(-c2ccccc2)nnc1Nc1ccc(Oc2ncccc2-c2ccnc(N)c2)nc1` [compound 444], the IC50 in assay [1] (setting [3]) is 100 to 500 nM; in assay [2] (setting [4]) it was not above 100 nM.

`Cc1cc(-c2ccccc2)nnc1Nc1ccc(Oc2ncccc2-c2ccnc(NCCCO)n2)cc1` [compound 429]: the IC50 in assay [1] (setting [3]) and in assay [2] (setting [4]) was not above 100 nM each time.

As for `Nc1nccc(-c2cccnc2Oc2ccc(Nc3nnc(-c4ccccc4)c4ccccc34)cn2)n1` [compound 415], the IC50 in assay [1] (setting [3]) and in assay [2] (setting [4]) was not above 100 nM throughout.

For `COc1cccc(-c2cc(C)c(Nc3ccc(Oc4ncccc4-c4ccnc(N)n4)cc3)nn2)c1` [compound 443], the IC50 in assay [1] (setting [3]) and in assay [2] (setting [4]) was not above 100 nM throughout.

With `Cc1cc(-c2ccccc2)nnc1Nc1ccc(Oc2ncccc2-c2ccnc(N)c2)cc1` [compound 418], the IC50 in assay [1] (setting [3]) and in assay [2] (setting [4]) was not above 100 nM each time.

Consider `Cc1cccc(-c2nnc(Nc3ccc(Oc4ncccc4-c4ccnc(N)n4)cc3)c3ccccc23)n1` [compound 271], for which the IC50 in assay [1] (numeric values, read-out: AurA/TPX2_IC50_IP (Avg)) is 24.3 nM; in assay [2] (numeric values, read-out: AurB_IC50_IP (Avg)), 1 nM.

As for `COCc1cc(-c2ccccc2)nnc1Nc1ccc(Oc2ncccc2-c2ccnc(N)n2)cc1` [compound 446], the IC50 in assay [1] (setting [3]) and in assay [2] (setting [4]) was not above 100 nM in each case.

`CCc1cc(-c2ccccc2)nnc1Nc1ccc(Oc2ncccc2-c2ccnc(N)n2)nc1` [compound 439]: the IC50 in assay [1] (setting [3]) and in assay [2] (setting [4]) was not above 100 nM throughout.

For the compound `Oc1cccc(-c2ccncc2)c1Oc1ccc(Nc2nnc(-c3ccccc3)c3ccccc23)cc1` [compound 447], in assay [2] (setting [4]), the IC50 fell in the range of 500 to 2500 nM.

In the case of `CC(C)c1nnc(Nc2ccc(Oc3ncccc3-c3ccnc(N)n3)nc2)c2ccccc12` [compound 269], the IC50 in assay [1] (setting [3]) lay within 100 to 500 nM.

With `O=C(O)CCCNc1nccc(-c2cccnc2Oc2ccc(Nc3nnc(-c4ccccc4)c4ccccc34)cc2)n1` [compound 427], the IC50 in assay [1] (setting [3]) and in assay [2] (setting [4]) was not above 100 nM in each case.

As for `COc1ccccc1-c1nnc(Nc2ccc(Oc3ncccc3-c3ccnc(N)c3)cc2)c2ccccc12` [compound 442], the IC50 came to 375 nM in assay [1] (setting [5]) and 33 nM in assay [2] (setting [6]).

`COc1ccccc1-c1nnc(Nc2ccc(Oc3ncccc3-c3ccnc(N)n3)nc2)c2ccccc12` [compound 440]: the IC50 in assay [1] (setting [3]) and in assay [2] (setting [4]) was not above 100 nM in each case.

On to `c1ccc(-c2nnc(Nc3ccc(Oc4ncncc4-c4ccncc4)cc3)c3ccccc23)cc1` [Example 243, 4-phenyl-N-(4-(5-(pyridin-4-yl)pyrimidin-4-yloxy)phenyl)phthalazin-1-amine], for which the IC50 in assay [1] (setting [7]) and in assay [2] (setting [8]) was not above 100 nM in each case.

`Cc1csc(-c2cc(C)c(Nc3ccc(Oc4ncccc4-c4ccnc(N)c4)cc3)nn2)c1` [compound 419]: the IC50 in assay [1] (setting [3]) and in assay [2] (setting [4]) was not above 100 nM throughout.

In the case of `COc1ccccc1-c1nnc(Nc2ccc(Oc3ncccc3-c3ccnc(N)n3)cc2)c2ccccc12` [compound 437], the IC50 in assay [1] (setting [3]) and in assay [2] (setting [4]) was not above 100 nM throughout.

With `N#Cc1cccc(-c2ccncc2)c1Oc1ccc(Nc2nnc(-c3ccccc3)c3ccccc23)cc1` [compound 436], the figures for the IC50 in assay [1] (setting [3]) and in assay [2] (setting [4]) were 100 to 500 nM and not above 100 nM, respectively.

Consider `Cc1csc(-c2cc(C)c(Nc3ccc(Oc4ncccc4-c4ccnc(N)c4)cc3)nn2)n1` [compound 434], for which the IC50 is 98.6 nM in assay [1] (setting [5]) and 9.5 nM in assay [2] (setting [6]).

Turning to `CCCc1cc(-c2ccccc2)nnc1Nc1ccc(Oc2ncccc2-c2ccnc(N)n2)cc1` [compound 445], the IC50 in assay [1] (setting [5]) came out at 23.5 nM; in assay [2] (setting [6]), 3.1 nM.

Regarding `Cc1csc(-c2cc(C)c(Nc3ccc(Oc4ncccc4-c4ccncc4)cc3)nn2)c1` [compound 428], the IC50 in assay [1] (setting [3]) and in assay [2] (setting [4]) was not above 100 nM each time.

On to `COc1cccc(-c2ccncc2)c1Oc1ccc(Nc2nnc(-c3ccccc3)c3ccccc23)cc1` [compound 448], for which the IC50 in assay [1] (setting [5]) amounted to 110 nM; in assay [2] (setting [6]), 9.6 nM.

In the case of `O=c1cc(-c2cccnc2Oc2ccc(Nc3nnc(-c4ccccc4)c4ccccc34)cc2)cc[nH]1` [compound 432], in assay [2] (setting [4]), the IC50 was 500 to 2500 nM.

With `Cc1csc(-c2nnc(Nc3ccc(Oc4ncccc4-c4ccnc(N)c4)cc3)c3ccccc23)c1` [compound 416], the figures for the IC50 in assay [1] (setting [5]) and in assay [2] (setting [6]) were 54.1 nM and 14.5 nM, respectively.

Take `CNc1nccc(-c2cccnc2Oc2ccc(Oc3nnc(-c4ccccc4)c4ccccc34)cc2)n1` [Example 244, N-methyl-4-(2-(4-(4-phenylphthalazin-1-yloxy)phenoxy)pyridin-3-yl)pyrimidin-2-amine]: the IC50 in assay [1] (setting [7]) and in assay [2] (setting [8]) was not above 100 nM throughout.

Turning to `Nc1cc(-c2cccnc2Oc2ccc(Nc3nnc(-c4ccccc4)c4ccccc34)cn2)ccn1` [compound 431], the IC50 in assay [1] (setting [3]) and in assay [2] (setting [4]) was not above 100 nM throughout.

Take `COCc1cccc(-c2nnc(Nc3ccc(Oc4ncccc4-c4ccnc(N)n4)cc3)c3ccccc23)n1` [compound 298]: the IC50 in assay [1] (setting [3]) and in assay [2] (setting [4]) was not above 100 nM in each case.

Turning to `CCc1cc(-c2ccccc2)nnc1Nc1ccc(Oc2ncccc2-c2ccnc(N)c2)cc1` [compound 420], the IC50 in assay [1] (setting [5]) turned out to be 56.8 nM; in assay [2] (setting [6]), 7.1 nM.

Consider `CNc1cc(-c2cnccc2Oc2ccc(Nc3nnc(-c4ccccc4)c4ccccc34)cc2)ccn1` [Example 242, N-(4-(3-(2-(methylamino)pyridin-4-yl)pyridin-4-yloxy)phenyl)-4-phenylphthalazin-1-amine], for which the IC50 in assay [1] (setting [7]) and in assay [2] (setting [8]) was not above 100 nM throughout.

For the origin of these results see patent US8686155B2, “Aurora kinase modulators and method of use” (Amgen Inc., priority 2006, dated 2014).
